Measured values reported in PMC9421656, “Beyond Retigabine: Design, Synthesis, and Pharmacological Characterization of a Potent and Chemically Stable Neuronal Kv7 Channel Activator with Anticonvulsant Activity” (Journal of Medicinal Chemistry, 2022).
Several values for one entry are separate records, joined by “and”; a condition that tells them apart may be missing. Equal entries are not always repeated.

How the values were obtained:
[1] = target: Kv7.2/Kv7.3 channels (Homo sapiens, UniProt O43525+O43526); assay: FluxOR thallium-sensitive fluorescence-based assay in CHO cells stably expressing Kv7.2 + Kv7.3; format: cell-based; design: expressed in transfected cells; details: 10 μM; for Kv7 opening activity (in words): compared with retigabine or the reference compound of the subseries; for Slope of the fluorescent signal at 10 μM: initial slope of FluxOR signal between 5 and 15 s, mean ± SEM
Method: While assay robustness in Kv7.2/Kv7.3-expressing cells was high (Z′ factor > 0.5),[27] the Z′ factor calculated in CHO cells expressing Kv7.2 subunits alone was <0.5; thus, all subsequent pharmacological screens were performed in Kv7.2/Kv7.3-expressing cells. […] The Kv7.2/Kv7.3-stable cell line was generated using a plasmid-based PiggyBac transposon system that enables genomic integration of multiple independent transposons containing distinct cDNA sequences. cDNAs for KCNQ2 and KCNQ3 genes (encoding for Kv7.2 and Kv7.3, respectively) were cloned into two different PiggyBac expression vectors (pB-CMV-MCS-EF1α-RedPuro, System Biosciences), and these two plasmids, together with a plasmid encoding for the transposase (System Biosciences), were transfected into CHO cells using Lipofectamine 2000 (Invitrogen) as indicated in the protocol provided by the seller company.
The selected clone stably expressing Kv7.2/Kv7.3 channels was grown in DMEM supplemented with 10% FBS, 50 U/mL Pen-Strep, 2 mM L-glutamine (all purchased from Gibco), and 4 μg/mL puromycin (Sigma) in a humidified atmosphere at 37 °C with 5% CO2. […] A kinetic dispense microplate reader (FLUOstar Optima) was used to read the plate, setting the excitation filter at 485 nm and the emission filter at 520 nm; “Stimulus buffer” prepared as indicated in the protocol was automatically added to wells after 5 s of recording; the plate was read every 1 s, for 50 s. The results were analyzed using Optima Data Analysis and Microsoft Excel.
Only experiments resulting in a Z′ > 0.5 were considered. Data shown (Figures 1D,E,F,G and 3B) were obtained from at least three independent experiments.
Data were analyzed using the GraphPad Prism 8.0.2 (GraphPad Software, LaJolla, CA). Statistically significant differences in the initial slope of the curves were evaluated through ordinary one-way ANOVA, and multiple comparisons were corrected with the Tukey test. […] Indicated EC50 values are the mean of at least three independent experiments ± standard error of the mean (SEM).

[2] = Photostability under UV-visible light with HPLC analysis (degradation, dimer formation); format: physicochemical; details: for % Degradation (3h, UV): 10 μM, buffered aqueous solution pH 7.4, 3 h UV-visible light, ± SD; for Dimers Formation / Photodegradation (in words): 3 h UV-visible light; for Dimers Formation: HPLC at 550 nm; for Photodegradation (in words): compared with retigabine
From the text: Two different HPLC wavelengths were utilized: (a) […] to evaluate the decreased concentration of the starting molecule; (b) 550 nm to investigate the formation of phenazine/phenazinium dimers, as previously described.[10] Unfortunately, dimer formation was detected for all tested compounds, except for 23 and 24. […]. […]. The first group consisted of N4 (−X- in Table 2) substituted analogues, in which the tertiary amine is unavailable for the formation of phenazine dimers (compounds 25–28). […]. The third group included derivatives replacing hydrogen atoms with electron-withdrawing fluorine atoms at position R2 of the benzene-1,2,4-triamine core scaffold (compounds 59, 60), a strategy likely reducing the reactivity of N2 and N4. […].
Photostability experiments were performed by dissolving compounds in DMSO and then diluting in buffered aqueous solutions at pH 7.4 to a final concentration of 10 μM. 1 cm quartz cells, filled with the abovementioned solutions, were irradiated by a UV lamp (UV Consulting TQ 150 equipped with Duran 50 sleeve and 150 W power supply unit, Peschl, Germany) at a fixed distance of 20 cm from the UV source. Control samples were maintained at 37 °C, wrapped with aluminum foil to avoid light exposure, and used to assess chemical stability of the compounds. At predetermined intervals, aliquots were withdrawn and analyzed by UHPLC in order to assess the concentration decrease of the starting materials and the presence of the dimers usually formed by retigabine.
Photostability and chemical stability experiments were carried out on a Kinetex^TM C18 150 × 2.1 mm × 2.6 μm (100 Å) column (Phenomenex, Bologna, Italy). The optimal mobile phase consisted of 0.1% TFA/H2O v/v (A) and 0.1% TFA/ACN v/v (B). Analysis was performed in gradient elution as follows: 0–13.0 min, 5–65% B; 13–14.0 min, 65–95% B; 14–15.0 min, isocratic to 95% B; 15–15.01 min, 95–5% B; then 3 min for column re-equilibration. The flow rate was 0.5 mL min^–1. The column oven temperature was set to 45 °C. The injection volume was 7 μL of sample. The following PDA parameters were applied: sampling rate, 12.5 Hz; detector time constant, 0.160 s; cell temperature, 40 °C. Data acquisition was set in the range 190–800 nm, and chromatograms were monitored at 224 nm to assess the decrease in concentration of the starting material, while a wavelength of 550 nm was used to eventually detect dimerization.

Question: With CCCCCCC(=O)Nc1ccc(NCc2ccc(C(F)(F)F)cc2)cc1 [compound 2, N-(4-((4-(Trifluoromethyl)benzyl)amino)phenyl)heptanamide] as the compound, how does the “Kv7 opening activity (in words)” value [1] read?
Answer: The value was “still active although with slightly lower efficacy”.

Question: What about the “Slope of the fluorescent signal at 10 μM” value [1] of the same compound?
Answer: The value was 0.0326±0.0063.

Question: Which results are given for CCCCCCC(=O)Nc1ccc(NCc2ccc(C(F)(F)F)cc2)cc1N [compound 13, N-(2-Amino-4-((4-(trifluoromethyl)benzyl)amino)phenyl)heptanamide]?
Answer: % Degradation (3h, UV) [2]: 30.6 ± 2.2%; Dimers Formation [2]: Yes; Slope of the fluorescent signal at 10 μM [1]: 0.0443±0.0049

Question: For CCCCCCCC(=O)Nc1ccc(NCc2ccc(C(F)(F)F)cc2)cc1N [compound 14, N-(2-Amino-4-((4-(trifluoromethyl)benzyl)amino)phenyl)octanamide], which “% Degradation (3h, UV)” value [2] is on record?
Answer: Its value is 73.2±0.4%.

Question: And the “Dimers Formation” value [2]?
Answer: Its value is “Yes”.

Question: What about the “Slope of the fluorescent signal at 10 μM” value [1] of the same compound?
Answer: The value was 0.0563±0.0039.

Question: With CCCCCCCCCC(=O)Nc1ccc(NCc2ccc(C(F)(F)F)cc2)cc1N [compound 15, N-(2-Amino-4-((4-(trifluoromethyl)benzyl)amino)phenyl)decanamide] as the compound, how does the “Kv7 opening activity (in words)” value [1] read?
Answer: Its value is “progressive decrease in Kv7 opening ability”.

Question: What about the “Slope of the fluorescent signal at 10 μM” value [1] of the same compound?
Answer: Its value is 0.0261±0.0030.

Question: For CCCCCCCCCCCC(=O)Nc1ccc(NCc2ccc(C(F)(F)F)cc2)cc1N [compound 16, N-(2-Amino-4-((4-(trifluoromethyl)benzyl)amino)phenyl)dodecanamide], which “Kv7 opening activity (in words)” value [1] is on record?
Answer: Its value is “progressive decrease in Kv7 opening ability”.

Question: And the “Slope of the fluorescent signal at 10 μM” value [1]?
Answer: The value was 0.0084±0.0004.

Question: Which “% Degradation (3h, UV)” value [2] does the source give for CC(C)(C)CC(=O)Nc1ccc(NCc2ccc(C(F)(F)F)cc2)cc1N [compound 17, N-(2-Amino-4-((4-(trifluoromethyl)benzyl)amino)phenyl)-3,3-dimethylbutanamide] here?
Answer: Its value is 79.8 ± 4.2%.

Question: What about the “Dimers Formation” value [2] of the same compound?
Answer: Its value is “Yes”.

Question: And the “Slope of the fluorescent signal at 10 μM” value [1]?
Answer: The value was 0.0512±0.0040.

Question: Which “Slope of the fluorescent signal at 10 μM” value [1] does the source give for Nc1cc(NCc2ccc(C(F)(F)F)cc2)ccc1NC(=O)C1CC1 [compound 18, N-(2-Amino-4-((4-(trifluoromethyl)benzyl)amino)phenyl)cyclopropanecarboxamide] here?
Answer: Its value is 0.0346±0.0078.

Question: Which “% Degradation (3h, UV)” value [2] does the source give for Nc1cc(NCc2ccc(C(F)(F)F)cc2)ccc1NC(=O)CCC1CCCCC1 [compound 19, N-(2-Amino-4-((4-(trifluoromethyl)benzyl)amino)phenyl)-3-cyclohexylpropanamide] here?
Answer: Its value is 64.8 ± 0.9%.

Question: And the “Dimers Formation” value [2]?
Answer: The value was “Yes”.

Question: And the “Slope of the fluorescent signal at 10 μM” value [1]?
Answer: Its value is 0.0452±0.0077.

Question: For COCCOCC(=O)Nc1ccc(NCc2ccc(C(F)(F)F)cc2)cc1N [compound 20, N-(2-Amino-4-((4-(trifluoromethyl)benzyl)amino)phenyl)-2-(2-methoxyethoxy)acetamide], which “Kv7 opening activity (in words)” value [1] is on record?
Answer: Its value is “complete loss of activity”.

Question: And the “Slope of the fluorescent signal at 10 μM” value [1]?
Answer: Its value is 0.0062±0.0005.

Question: For CC(C)(C)CC(=O)Nc1ccc(NCc2ccc(C(F)(F)F)cc2)cc1N1CCCC1 [compound 23, 3,3-Dimethyl-n-(2-(pyrrolidin-1-yl)-4-((4-(trifluoromethyl)benzyl)amino)phenyl)butanamide], which “% Degradation (3h, UV)” value [2] is on record?
Answer: The value was 97.7± 1.0%.

Question: And the “Dimers Formation” value [2]?
Answer: The value was “inability of compounds 23 and 24 to form dimers and No”.

Question: And the “Photodegradation (in words)” value [2]?
Answer: Its value is “enhanced degradation when compared to retigabine”.

Question: What about the “Kv7 opening activity (in words)” value [1] of the same compound?
Answer: Its value is “comparable to that of the reference compound 17”.

Question: What about the “Slope of the fluorescent signal at 10 μM” value [1] of the same compound?
Answer: Its value is 0.0772±0.0036.

Question: Which results are given for CC(C)(C)CC(=O)Nc1ccc(NCc2ccc(C(F)(F)F)cc2)cc1N1CCCCC1 [compound 24, 3,3-Dimethyl-N-(2-(piperidin-1-yl)-4-((4-(trifluoromethyl)benzyl)amino)phenyl)butanamide]?
Answer: % Degradation (3h, UV) [2]: 79.8 ± 4.2%; Dimers Formation [2]: inability of compounds 23 and 24 to form dimers and No; Photodegradation (in words) [2]: enhanced degradation when compared to retigabine; Kv7 opening activity (in words) [1]: comparable to that of the reference compound 17; Slope of the fluorescent signal at 10 μM [1]: 0.0591±0.0043

Question: For CCCCCCC(=O)Nc1ccc(N(CCC)Cc2ccc(C(F)(F)F)cc2)cc1N [compound 27, N-(2-Amino-4-(propyl(4-(trifluoromethyl)benzyl)amino)phenyl)heptanamide], which “Kv7 opening activity (in words)” value [1] is on record?
Answer: Its value is “did not improve activity”.

Question: And the “Slope of the fluorescent signal at 10 μM” value [1]?
Answer: The value was 0.0363±0.0052.

Question: Which results are given for CCCCCCC(=O)Nc1ccc(N(Cc2ccc(C(F)(F)F)cc2)C(C)=O)cc1N [compound 28, N-(2-Amino-4-(N-(4-(trifluoromethyl)benzyl)acetamido)phenyl)heptanamide]?
Answer: Kv7 opening activity (in words) [1]: markedly reduced activity; Slope of the fluorescent signal at 10 μM [1]: 0.0138±0.0024

Question: For CCCCCCC(=O)Nc1ccc(OCc2ccc(C(F)(F)F)cc2)cc1N [compound 31, N-(2-Amino-4-((4-(trifluoromethyl)benzyl)oxy)phenyl)heptanamide], which “Kv7 opening activity (in words)” value [1] is on record?
Answer: Its value is “failed to activate Kv7.2/ Kv7.3 channels”.

Question: What about the “Slope of the fluorescent signal at 10 μM” value [1] of the same compound?
Answer: Its value is 0.0057±0.0005.

Question: For CCCCCCC(=O)Nc1ccc(NCCc2ccc(F)cc2)cc1N [compound 42, N-(2-Amino-4-((4-fluorophenethyl)amino)phenyl)heptanamide], which “Kv7 opening activity (in words)” value [1] is on record?
Answer: Its value is “complete loss of activity”.

Question: And the “Slope of the fluorescent signal at 10 μM” value [1]?
Answer: Its value is 0.0098±0.0010.

Question: For CCCCCCC(=O)Nc1ccc(NCc2ccccn2)cc1N [compound 47, N-(2-Amino-4-((pyridin-2-ylmethyl)amino)phenyl)heptanamide], which “Kv7 opening activity (in words)” value [1] is on record?
Answer: The value was “complete loss of activity”.

Question: What about the “Slope of the fluorescent signal at 10 μM” value [1] of the same compound?
Answer: Its value is 0.0071±0.0004.

Question: For CCCCCCC(=O)Nc1ccc(NCc2ccncc2)cc1N [compound 51, N-(2-Amino-4-((pyridin-4-ylmethyl)amino)phenyl)heptanamide], which “Kv7 opening activity (in words)” value [1] is on record?
Answer: Its value is “complete loss of activity”.

Question: What about the “Slope of the fluorescent signal at 10 μM” value [1] of the same compound?
Answer: The value was 0.0063±0.0002.

Question: Which “Kv7 opening activity (in words)” value [1] does the source give for CCCCCCC(=O)Nc1ccc(NCc2ccc(O)cc2)cc1N [compound 57, N-(2-Amino-4-((4-hydroxybenzyl)amino)phenyl)heptanamide] here?
Answer: Its value is “complete loss of activity”.

Question: What about the “Slope of the fluorescent signal at 10 μM” value [1] of the same compound?
Answer: The value was 0.0068±0.0003.

Question: Which results are given for CCCCCCC(=O)Nc1ccc(NCc2ccc(C(F)(F)F)cc2)c(F)c1N [compound 59, N-(2-Amino-3-fluoro-4-((4-(trifluoromethyl)benzyl)amino)phenyl)heptanamide]?
Answer: Kv7 opening activity (in words) [1]: similar; Slope of the fluorescent signal at 10 μM [1]: 0.0345±0.0026

Question: Which “Kv7 opening activity (in words)” value [1] does the source give for CC(C)(C)CC(=O)Nc1ccc(CCc2ccc(C(F)(F)F)cc2)cc1N [compound 68, N-(2-Amino-4-(4-(trifluoromethyl)phenethyl)phenyl)-3,3-dimethylbutanamide] here?
Answer: The value was “failed to activate Kv7.2/ Kv7.3 channels”.

Question: And the “Slope of the fluorescent signal at 10 μM” value [1]?
Answer: The value was 0.0073±0.0005.

Question: With CCCCCCNC(=O)c1ccc(NCc2ccc(C(F)(F)F)cc2)cc1N [compound 71, 2-Amino-N-hexyl-4-((4-(trifluoromethyl)benzyl)amino)benzamide] as the compound, how does the “Kv7 opening activity (in words)” value [1] read?
Answer: Its value is “complete loss of activity”.

Question: And the “Slope of the fluorescent signal at 10 μM” value [1]?
Answer: Its value is 0.0066±0.0006.

Question: Which “Kv7 opening activity (in words)” value [1] does the source give for “N-(2-Amino-4-(4-(trifluoromethyl)phenethyl)phenyl)heptanamide [compound 67]” here?
Answer: Its value is “failed to activate Kv7.2/ Kv7.3 channels”.

Question: What about the “Slope of the fluorescent signal at 10 μM” value [1] of the same compound?
Answer: Its value is 0.0087±0.0002.
